Measurements published in US20220193447A1, “METHODS FOR MODULATION OF AND SENSITIZATION TO SERINE AND GLYCINE LIMITATION” (Faeth Therapeutics, Inc., priority 2020, published 2022).
Where a SMILES comes first, the peptide text is derived from it. The star is where a group is joined. Cbz = O=C(OCc1ccccc1)*

Key:
HT-29 and HCT116 cells = settings: supplement alone (1 mM sodium formate or 0.4 mM glycine)
Description: Cells (2×10^4 to 3×10^4 cells/well depending on the cell lines) were plated in 24-well plates in their regular medium. […] For the counting step, cells were trypsinized, suspended in PBS-EDTA, and counted with a CASY Model TT Cell Counter. Relative cell number at each time point was calculated based on the number of cells measured before the medium change.

IDO1 expression [1] = assay: Immunoblotting of IDO1 in human pancreatic cancer cells; assay type: cell-based; settings: for IDO1 protein levels: 2D or 3D culture, MG132 20 μM 16 h, bafilomycin A1 100 nM
ATF-4 response = assay: Western blots of SSP enzymes and ATF-4 response; assay type: cell-based, human; settings: MG-132 10 μM
Description: Protein lysates were processed in RIPA-buffer supplemented with phosphatase inhibitor cocktail and complete protease inhibitors. Lysates were separated using precast NuPAGE 4-12% Bis-Tris Protein gels and transferred to nitrocellulose membranes. Following incubation with primary antibodies, appropriate secondary antibodies were used to detect the proteins. Westerns scanned using the Odyssey CLx or visualized using ECL chemiluminescence detection kits.
Cells were grown for 24 hours in −SG medium or CM and treated with 10 μM PH755 diluted in DMSO or DMSO alone. To evaluate protein synthesis, puromycin (final concentration: 90 μM) was added to each well 10 minutes prior harvesting the cells for western blot analysis, except in the negative control well. Where indicated, cells grown in CM medium were treated with cycloheximide (10 μg/mL) for the last 5 hours providing a control for translation inhibition. Incorporation of puromycin into newly synthesized proteins was assessed by Western blot using an anti-puromycin antibody. To assess the accumulation of short-lived proteins in response to proteasome inhibition, cells grown in −SG medium or CM plus or minus 10 μM PH755 for 24 hours were treated for the last 6 hours with the proteasome inhibitor MG-132 (10 μM) before harvesting the cells for western blot analysis.

KPC cells = assay: KPC cell proliferation with or without serine; assay type: cell-based, mouse; settings: epacadostat 1 μM, −Serine medium, 5 days
Description: KPC cells (tumor cells derived from a pancreatic tumor of a Kras' p53″^t genetically engineered mouse) were seeded into 24-well plates and allowed to adhere overnight. […] Cell number was recorded every 24 h for 5 days. A time zero plate was used to calculate the starting cell number.

IDO1 expression [2] = assay: Immunoblotting of IDO1 in KPC cells; assay type: cell-based, mouse

Molecule: NCC(=O)O [glycine]
- growth of −SG plus PH755 treated cells (HT-29 and HCT116 cells): did not restore growth

Molecule: O=C[O-].[Na+] [formate, sodium formate]
- growth of −SG plus PH755 treated cells (HT-29 and HCT116 cells): did not restore growth

Molecule: CC(C)C[C@@H](C=O)NC(=O)[C@H](CC(C)C)NC(=O)[C@H](CC(C)C)NC(=O)OCc1ccccc1 [MG-132] (Cbz-Leu-Leu-Leu-aldehyde)
- IDO1 protein levels (IDO1 expression [1]): no effect on IDO1 protein levels
- ATF-4 protein level (ATF-4 response; cells in complete medium): strong accumulation of ATF-4
- ATF-4 protein levels and ASNS, PSAT expression (ATF-4 response; cells in −SG medium plus PH755): no restoration of ATF-4 protein levels

Molecule: CO/C1=C\C(C)=C\[C@@H](C)[C@@H](O)[C@@H](C)C/C(C)=C/C=C/[C@H](OC)[C@@H]([C@@H](C)[C@@H](O)[C@H](C)[C@@]2(O)C[C@@H](O)[C@H](C)[C@@H](C(C)C)O2)OC1=O [bafilomycin, bafilomycin A1]
- IDO1 protein levels (IDO1 expression [1]): no effect on IDO1 protein levels

Molecule: NS(=O)(=O)NCCNc1nonc1C(=NO)Nc1ccc(F)c(Br)c1 [epacadostat]
- antiproliferative effect of serine starvation (KPC cells): enhances the antiproliferative effect

Molecule: CC(C)(C)c1nc2c3cc[nH]c(=O)c3c3cc(F)ccc3c2[nH]1 [JAKi]
- up-regulation of IDO1 protein levels in AI-grown cells (IDO1 expression [1]; CFPAC-1 or HPAF-II cells, JAKi 1 μM, 16 h): blocked

Molecule: human form of IFNγ: human cytokine IFNγ, canonical activator of IDO1
- IDO1 expression (IDO1 expression [1]; panel of human pancreatic cancer cells, IFNγ 1 ng/ml, 24 h): consistently increased IDO1 expression
- IDO1 expression (IDO1 expression [2]; murine cells, human form of IFNγ): did not impact IDO1 expression in murine cells

B1: murine form of cytokine IFNγ: murine cytokine IFNγ, a canonical activator of IDO1 (protein, UniProt P01580 23-155, looked up)
Interferon gamma: HGTVIESLESLNNYFNSSGIDVEEKSLFLDIWRNWQKDGDMKILQSQIISFYLRLFEVLKDNQAISNNISVIESHLITTFFSNSKAKKDAFMSIAKFEVNNPQVQRQAFNELIRVVHQLLPESSLRKRKRSRC
- IDO1 expression (IDO1 expression [2]; KPC cells, murine IFNγ 1 ng/ml, 24 h): increased IDO1 expression in vitro
